Structures can show the parent of a compound that is named as a salt.
What follows are molecules tested against T1, SCD (stearoyl-CoA desaturase) (Rattus norvegicus, UniProt P07308) (assay: SCD assay with rat liver microsomes ([3H]stearoyl CoA desaturation, adapted from Talamo and Bloch)). Conditions: rat liver microsomes 0.2 mg/ml final, 30 min preincubation, stearoyl CoA substrate, 45 min, room temperature.
T1 construct: The rat liver microsomes were collected according to the procedure described in Ozols (1990) Methods Enzm, 182:225; from tissue; host or cells: liver microsomes of male Sprague Dawley rats after induction with a carbohydrate-rich diet
T1 sequence (P07308 1-358): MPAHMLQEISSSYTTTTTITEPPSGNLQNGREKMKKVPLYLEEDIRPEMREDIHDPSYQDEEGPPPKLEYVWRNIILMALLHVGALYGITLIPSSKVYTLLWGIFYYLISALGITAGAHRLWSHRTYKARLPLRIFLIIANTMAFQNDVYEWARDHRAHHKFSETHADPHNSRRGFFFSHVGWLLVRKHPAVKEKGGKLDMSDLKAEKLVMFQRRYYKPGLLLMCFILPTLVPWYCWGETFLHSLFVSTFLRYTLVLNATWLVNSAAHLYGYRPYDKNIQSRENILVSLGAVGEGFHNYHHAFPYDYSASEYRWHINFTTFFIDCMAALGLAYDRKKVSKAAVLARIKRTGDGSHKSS
Assay type: biochemical
Excerpt: The identification of compounds of the invention as SCD inhibitors was readily accomplished using the SCD enzyme and microsomal assay procedure described in Talamo and Bloch (1969) Analytical Biochemistry 29:300-304.
The rat liver microsomes were collected according to the procedure described in Ozols (1990) Methods Enzm, 182:225.
Male Sprague Dawley Rats were placed on regimented fasting protocol for one week to stimulate SCD enzymatic activity. 48-hour periods were alternated between feeding and fasting to induce and down-regulate SCD activity with SCD activity being induced via carbohydrate rich diet prior to liver perfusion and collection.
The supernatant was then aspirated off and the collected microsomal pellet washed in 25 mL of Glycerol PBS (1× PBS 7.4, 20% Glycerol) and resuspended in 4-5 volumes of Glycerol PBS.
SCD was determined in the desaturase assay buffer. This assay buffer contained 0.1 M Tris buffer, pH 7.2, 2 mM NADH, 4.8 mM ATP, 0.5 mM CoA, 4.8 mM MgCl2, and 0.1% BSA.
The Procedure for the SCD Assay (Adapted from Talamo and Bloch (1969) Analytical Biochemistry 29:300-304)
1 μl of each compound of Formula I was added to an assay plate by a low volume (0.5-10 μL) multichannel pipette. A DMSO control was also prepared. The microsomes were quickly thawed and added to assay buffer so that a concentration of 0.4 mg/ml was achieved (0.2 mg/ml assay final). 50 μl of the microsome suspension in assay buffer was then added into each well in the compound assay plate, the plate was covered, and the microsomes preincubated with the compounds for 30 minutes on the orbital shaker, 50-75 rpm, at room temperature.
After preincubation, the reaction was initiated by the addition of 50 μl of substrate solution (20 μM Stearoyl CoA, [3H]Stearoyl CoA, 74nCi) to the preincubated microsomes/compound suspensions in MilliQ (Millipore) H2O. The reaction mixtures were then incubated for 45 minutes on the orbital shaker at 50-75 rpm at room temperature.
The reaction was terminated by the addition of 10 μl of 21% trichloroacetic acid (TCA) to the reaction mixture followed incubation on the orbital shaker for 30 minutes at 50-75 rpm at room temperature followed by centrifugation for 5 minutes at 3700 rpm.
50 μl of a 6% Bio-Bead suspension in H2O was added to the reaction mixture and the assay plate was sealed. The Bio-Bead mixture was incubated on the orbital shaker for 1 hour, 100-150 rpm at room temperature, and then the mixture was centrifuged at 2000 g for 5 minutes to pellet the Bio-Beads.
25 μl of the supernatant was harvested from each well and transferred to a detection plate. 100 μl of OptiPhase SuperMix scintillation cocktail (containing sufficient NaOH to neutralize the TCA) was added and the solutions mixed by vigorous shaking (300-400 rpm) for 5 minutes at room temperature.

Compound	IC50 [nM]
CC(=O)NCCN1C(=O)C(C)Oc2ccc(NCc3ccc(Cl)c(Cl)c3)cc21 (racemic) [Compound 9, (±)-N-(2-(6-(3,4-dichlorobenzylamino)-2-methyl-3-oxo-2H-benzo[b][1,4]oxazin-4(3H)-yl)ethyl)acetamide]	1 to 10
CC(=O)NCCN1C(=O)C(C)Oc2ccc(NCc3ccc(Cl)c(C(F)(F)F)c3)cc21 (racemic) [Compound 10, (±)-N-(2-(6-(4-chloro-3-(trifluoromethyl)benzylamino)-2-methyl-3-oxo-2H-benzo[b][1,4]oxazin-4(3H)-yl)ethyl)acetamide]	1 to 10
CC1Oc2ccc(NCc3ccc(Cl)c(Cl)c3)cc2N(CCNC(=O)CO)C1=O (racemic) [Compound 11, (±)-N-(2-(6-(3,4-dichlorobenzylamino)-2-methyl-3-oxo-2H-benzo[b][1,4]oxazin-4(3H)-yl)ethyl)-2-hydroxyacetamide]	80
CC1Oc2ccc(NCc3ccc(Cl)c(C(F)(F)F)c3)cc2N(CCNC(=O)CO)C1=O (racemic) [Compound 12, (±)-N-(2-(6-(4-chloro-3-(trifluoromethyl)benzylamino)-2-methyl-3-oxo-2H-benzo[b][1,4]oxazin-4(3H)-yl)ethyl)-2-hydroxyacetamide]	1 to 10
NC(=O)CCN1C(=O)COc2ccc(NCc3ccc(Cl)c(Cl)c3)cc21 [Compound 1, 3-(6-(3,4-dichlorobenzylamino)-3-oxo-2H-benzo[b][1,4]oxazin-4(3H)-yl)propanamide]	53.5
CC(=O)NCCN1C(=O)COc2ccc(NCc3ccccc3)cc21 [Compound 2, N-(2-(6-(benzylamino)-3-oxo-2H-benzo[b][1,4]oxazin-4(3H)-yl)ethyl)acetamide hydrochloride]	14900
CC(=O)NCCN1C(=O)COc2ccc(NCc3ccc(Cl)c(Cl)c3)cc21 [Compound 3, N-(2-(6-(3,4-dichlorobenzylamino)-3-oxo-2H-benzo[b][1,4]oxazin-4(3H)-yl)ethyl)acetamide hydrochloride]	10.7
O=C1COc2ccc(NCc3ccc(Cl)c(Cl)c3)cc2N1CCOc1ccccc1 [Compound 4, 6-(3,4-dichlorobenzylamino)-4-(2-phenoxyethyl)-2H-benzo[b][1,4]oxazin-3(4H)-one]	22200
CC(=O)NCCN1C(=O)COc2ccc(NCc3ccc(Cl)c(C(F)(F)F)c3)cc21 [Compound 5, N-(2-(6-(4-chloro-3-(trifluoromethyl)benzylamino)-3-oxo-2H-benzo[b][1,4]oxazin-4(3H)-yl)ethyl)acetamide hydrochloride]	4.87
CC(=O)NCCN1C(=O)COc2ccc(NCc3ccc(F)c(C(F)(F)F)c3)cc21 [Compound 6, N-(2-(6-(4-fluoro-3-(trifluoromethyl)benzylamino)-3-oxo-2H-benzo[b][1,4]oxazin-4(3H)-yl)ethyl)acetamide hydrochloride]	7.8
O=C(NCCN1C(=O)COc2ccc(NCc3ccc(Cl)c(Cl)c3)cc21)c1ccccc1 [Compound 7, N-(2-(6-(3,4-dichlorobenzylamino)-3-oxo-2H-benzo[b][1,4]oxazin-4(3H)-yl)ethyl)benzamide]	2.52
O=C(CO)NCCN1C(=O)COc2ccc(NCc3ccc(Cl)c(Cl)c3)cc21 [Compound 8, N-(2-(6-(3,4-dichlorobenzylamino)-3-oxo-2H-benzo[b][1,4]oxazin-4(3H)-yl)ethyl)-2-hydroxyacetamide hydrochloride]	1.39

From patent publication US20090253693A1, “2H-BENZO[b][1,4]OXAZIN-3(4H)-ONE DERIVATIVES FOR USE AS STEAROYL CoA DESATURASE INHIBITORS” (priority 2008, published 2009)
